Earlier results as cited in patent publication US20070042040A1, “Methods and compositions using gonadotropin hormone releasing hormone” (priority 2003, published 2007).

Conditions: mouse models

With `C[C@]12CC[C@H]3[C@@H](CCC4=C[C@H](O)CC[C@@H]43)[C@@H]1CC[C@@H]2O` [(3α,17β)-estr-4-ene-3,17-diol] as the molecule, how does the “effect on bone loss” value read?
The value was “reverse bone loss”.
